The text below walks through data of US7235548B2, “Compounds and their use as positive AMPA receptor modulators” (NeuroSearch A/S, priority 1998, dated 2007).

Experiment [1] concerns AMPA receptor. Nature of the experiment: Voltage clamp (whole cell patch clamp), current induced by AMPA in cultured mouse neocortical neurons. In kind it is cell-based. As to the method:
Experiments were performed in voltage clamp using conventional whole cell patch clamp methods (Hamill et al., 1981), essentially as described previously (Mathiesen et al., 1998). The following salt solutions were used (mM): NaCl (140), KCl (4), CaCl2 (2), MgCl2 (1), Sucrose (30), Tetrodotoxin (0.0003), Bicuculline Methiodide (0.005) and HEPES (10, pH 7.4). Intracellular solution (mM): CsCl (120), CsF (20), MgCl2 (2), EGTA (10), HEPES (10, pH=7.2).
Mouse neocortical neurons were cultured essentially as described by Drejer et al. (1987). Briefly, the forebrains from embryonic (E17) NMRI mice were removed under sterile conditions. The tissue was chopped in 0.4 mm cubes and the triturated with trypsin (12.5 μg/ml) and DNAse (2.5 μg/ml), 15 min, 37° C. The cells were suspended at a concentration of 1×10^6 cells/ml in a slightly modified DMEM which contained horse serum (10% (v/v)), penicillin (333 U/ml), paraaminobenzoic acid (1 mg/ml), L-glutamine (0.5 mM), insulin (0.08 U/ml) and KCl (23.8 mM). The cell suspension was subsequently inoculated into poly-L-lysine coated 35 mm Petri dishes (2 ml/dish). Glass coverslips (3.5 mm) were placed in the dishes before coating. After 24 hr in culture, the medium was replaced by freshly made medium containing 1% N2 supplement instead of serum.
The cells were kept in culture for 7–14 days at 37° C. (5% CO2/95% O2) before experiments were carried out.
Electronics, programs and data acquisition: The amplifier used was the EPC-9 (HEKA-electronics, Lambrect, Germany) run by a Power Macintosh G3 computer via an ITC-16 interface. Experimental conditions were set with the Pulse-software accompanying the amplifier. Data were low pass filtered and sampled directly to hard-disk at a rate of 3 times the cut-off frequency.
Pipettes and electrodes: Pipettes were pulled from borosilicate glass (Modulohm, Copenhagen, Denmark) using a horizontal electrode puller (Zeitz-Instrumente, Augsburg, Germany). The pipette resistances were 1.7–2.4 MW in the salt solutions used in these experiments. The pipette electrode was a chloridized silver wire, and the reference was a silverchloride pellet electrode (In Vivo Metric, Healdsburg, USA) fixed to the experimental chamber. The electrodes were zeroed with the open pipette in the bath just prior to sealing.
Experimental procedure: Coverslips were transferred to a […] experimental chamber mounted on the stage of an inverted microscope (IMT-2, Olympus) supplied with Nomarski optics. The neurons were continuously superfused with extracellular saline at a rate of 2.5 ml/min. After giga-seal formation (1–5 GW, success-rate≈90%) the whole cell configuration was attained by suction.
The cells were held at a holding voltage of −60 mV and at the start of each experiment the current was continuously measured for at least 30 sec to ensure a stable leak current. AMPA-containing solutions were delivered to the chamber through a custom-made gravity-driven flowpipe, the tip of which was placed approximately 50 μm from the cell. Application was triggered when the tubing connected to the flow pipe was compressed by a valve controlled by the Pulse-software. AMPA (30 μM) was applied for 1 sec every 45 sec. After obtainment of responses of a repeatable amplitude the compound to be tested was included in both the chamber and in the AMPA-containing solution. The compound was present until responses of a new repeatable was obtained.
The sample interval in all experiments was 310 μsec.
All experiments were performed at room temperature (20–25° C.).
A general note: The patch-clamp technique gives a direct electrical read-out from membranes.

The test system of experiment [2] is AMPA receptors. Nature of the experiment: AMPA evoked single neuron spike activity in rat hippocampus (iontophoretic application of AMPA), in vivo. The conditions noted are these: 10 mg kg^−1 i.v. The text has this:
Evaluation of the in vivo effects of positive AMPA modulators (PAMs) on the AMPA evoked spike activity in rat hippocampus. Hippocampal single neuron spike activity is strongly influenced by excitatory input, and iontophoretic application of AMPA induces spike activity in vivo in a dose-dependent manner ([…] et al. 1998). […] PAMs potentate AMPA receptor activation in vitro, and if this mechanism also operates in vivo, the i.v. injection of an PAM should enhance AMPA evoked spike activity. Thus, the aim of this study was to test the in vivo effect of a group of in vitro active PAMs. This have been done by studying their ability to enhances AMPA evoked spike activity after i.v. administration. Experiments were performed on male Wistar rats (M & B, Denmark) weighing 280-380 g, housed in two per cage with free access to food and water. […] Additional anaesthetic was given i.v. if the rat responded to a pinch of the back foot. The trachea was cannulated and the rats were placed in a stereotaxic frame and ventilated by a rodent ventilator (Ugo Basile, Comerio-Varese, Italy). Core body temperature was maintained at 37.5° C. by a DC heating pad. The left and dorsal part of the parietal bone was removed by craniotomy and the dura was withdrawn exposing the pia mater and underlying brain, covered with 0.9% NaCl. AMPA (Sigma, USA) was dissolved at 10 mM in 0.2 M NaCl. NMDA (Sigma, USA) was dissolved at 100 mM in 100 mM NaCl. Both solutions were adjusted to pH 7.5-8.0 with NaOH. COMPOUND 61 was dissolved in 200 mM CH3SO3^- Na^+ at a contration of 10 mM for iontophoretic application ([…]) and in isotonic glucose (278 mM) for i.v. administration. Cyclothiazide, COMPOUND 63, COMPOUND 56, COMPOUND 115 and COMPOUND 114 were all dissolved at in 5% chremophore solution at a concentration of 5 mg ml^-1. Evoked neuronal spike activity was analyzed on-line by a computer, saving single spikes and time of event. Neuronal spike activity (number of action potentials s^-1) was monitored on a pulse rate histogram together with indicators for AMPA, COMPOUND 61 and vehicle application. Extracellular recordings of single hippocampal neuron spikes were made with five-barrel glass microelectrodes (5B120F-6, World Precision Instruments Inc., Sarasota, Fla., USA) with a tip diameter of 10-12 μm. The individual barrels were filled with 5 M NaCl (recording), 400 mM NaCl (current balancing), 10 mM COMPOUND 61 in 200 mM CH3SO3^- Na^+ (pH 4.7), 200 mM CH3SO3^- Na^+ (pH 4.7, Vehicle), and the last barrel was filled with the AMPA. Experiments were performed on hippocampal neurons (A=5.5-6.5 mm, L=1.5-2.0 mm, H=2.0-3.0 mm, according to Paxinos & Watson, 1986). Neuronal spike activity was evoked by iontophoretic application of AMPA for periods of 10 to 15 s with 1.5 min intervals. Single neuron spike activity was amplified 5000 times with a bandwidth of 0.3 and 3 kHz (CyberAmp 320 with a Al 402 x50 smartprobe, Axon Instruments, California, USA). On-line and off-line analyses were performed by the Spike2 program with a 1401 plus interface (Cambridge Electronic Design Limited, England). The computer program also recorded mean arterial blood pressure and monitored and controlled iontophoretic application. AMPA was ejected into hippocampus in regular cycles of 100-105 s. […] Recording of neuronal spike activity was continued for at least 45 min after intravenous injection. The PAM reactivity was tested by microiontophoretic application of COMPOUND 61 (20 nA, FIG.).

As for `O=S1(=O)NC(C2CCCCC2)Nc2ccc(S(=O)(=O)N3CCCCC3)cc21` (centres unmarked) [Compound 56, 3-Cyclohexyl-7-piperidinosulfonyl-1,2,3,4-tetrahydro-1,2,4-benzothiadiazine-1,1-dioxide], the “reversibility of the potentiation” value in experiment [1] (after wash out of the compound) is listed as “reversible”. Also, in experiment [1] (compound 3 μM), the “persistence of the effect after wash out” value is “persits for several minutes after wash out”. Besides, in experiment [1] (compound 3 μM, holding voltage −60 mV), the “potentiation of the current induced by application of 30 μM AMPA” value is “potentiated”. Besides, the “onset of the enhancement after i.v. administration” value in experiment [2] is “approximately 10 min”. In addition, in experiment [2] (rat hippocampus), the “AMPA evoked spike activity” value is on record as “enhancement”.
